{
  "source": "patent US7700782B2",
  "about": "“Compounds 569” (AstraZeneca AB, priority 2007, dated 2010)",
  "note": "Where a name gives a salt, the structure may show the parent alone.",
  "data": [
    {"target": "T1, Adrenergic β2 (Homo sapiens, UniProt P07550)", "T1 construct": "Adherent H292 cells were removed from tissue culture flasks; endogenous in cells; host or cells: H292 cells", "T1 sequence (P07550 whole entry)": "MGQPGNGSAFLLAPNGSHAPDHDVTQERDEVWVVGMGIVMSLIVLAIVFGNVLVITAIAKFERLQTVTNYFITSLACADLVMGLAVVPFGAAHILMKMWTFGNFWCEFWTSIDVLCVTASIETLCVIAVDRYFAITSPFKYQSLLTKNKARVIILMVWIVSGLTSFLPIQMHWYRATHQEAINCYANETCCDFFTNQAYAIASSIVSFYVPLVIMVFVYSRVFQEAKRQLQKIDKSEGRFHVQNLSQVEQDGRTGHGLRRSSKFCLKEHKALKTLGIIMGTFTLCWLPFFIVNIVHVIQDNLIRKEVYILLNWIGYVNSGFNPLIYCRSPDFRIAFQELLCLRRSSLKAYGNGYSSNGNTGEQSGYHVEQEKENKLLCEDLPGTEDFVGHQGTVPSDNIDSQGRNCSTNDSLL", "assay": "Adrenergic β2 mediated cAMP production in H292 cells (AlphaScreen cAMP detection)", "format": "cell-based", "conditions": "Intrinsic Activity, fraction relative to the maximum activity determined for formoterol", "how_it_was_run": "(§1)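 H292 cells, 5000/well, preincubated 10 min with rolipram (final 300 μM, 1.6% DMSO) in HEPES pH 7.4 HBSS, then compound 60 min at room temperature. Lysate cAMP quantified by AlphaScreen against a cAMP standard curve. pEC50 and intrinsic activity (fraction of formoterol maximum) from four-parameter logistic fits.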", "values": [
      {"compound": "O=C(CCNCCC(F)(F)F)N(CCNCCc1ccc(O)c2[nH]c(=O)sc12)C1CCCCC1", "note": "[Example 80, N^1-Cyclohexyl-N^1-(2-{[2-(4-hydroxy-2-oxo-2,3-dihydro-1,3-benzothiazol-7-yl)ethyl]amino}ethyl)-N^3-(3,3,3-trifluoropropyl)-β-alaninamide bis-trifluoroacetic acid salt]", "β2 Int Act": 0.86},
      {"compound": "O=C(CCNCCc1cccc(F)c1F)N(CCNCCc1ccc(O)c2[nH]c(=O)sc12)C1CCCCC1", "note": "[Example 81, N^1-Cyclohexyl-N^3-[2-(2,3-difluorophenyl)ethyl]-N^1-(2-{[2-(4-hydroxy-2-oxo-2,3-dihydro-1,3-benzothiazol-7-yl)ethyl]amino}ethyl)-β-alaninamide bis-trifluoroacetic acid salt]", "β2 Int Act": 0.89},
      {"compound": "O=C(CCNCCc1cccc(C(F)(F)F)c1)N(CCNCCc1ccc(O)c2[nH]c(=O)sc12)C1CCCCCC1", "note": "[Example 82, N^1-Cycloheptyl-N^1-(2-{[2-(4-hydroxy-2-oxo-2,3-dihydro-1,3-benzothiazol-7-yl)ethyl]amino}ethyl)-N^3-{2-[3-(trifluoromethyl)phenyl]ethyl}-β-alaninamide bis-trifluoroacetic acid salt]", "β2 Int Act": 0.86},
      {"compound": "O=C(CCNCCc1cc(F)ccc1F)N(CCNCCc1ccc(O)c2[nH]c(=O)sc12)C1CCCCCC1", "note": "[Example 83, N^1-Cycloheptyl-N^3-[2-(2,5-difluorophenyl)ethyl]-N^1-(2-{[2-(4-hydroxy-2-oxo-2,3-dihydro-1,3-benzothiazol-7-yl)ethyl]amino}ethyl)-β-alaninamide bis-trifluoroacetic acid salt]", "β2 Int Act": 0.71},
      {"compound": "O=C(CCNCCc1c(F)cccc1F)N(CCNCCc1ccc(O)c2[nH]c(=O)sc12)C1CCCCCC1", "note": "[Example 84, N^1-Cycloheptyl-N^3-[2-(2,6-difluorophenyl)ethyl]-N^1-(2-{[2-(4-hydroxy-2-oxo-2,3-dihydro-1,3-benzothiazol-7-yl)ethyl]amino}ethyl)-β-alaninamide bis-trifluoroacetic acid salt]", "β2 Int Act": 0.89},
      {"compound": "Cc1cccc(CCNCCC(=O)N(CCNCCc2ccc(O)c3[nH]c(=O)sc23)C2CCCCCC2)c1", "note": "[Example 85, N^1-Cycloheptyl-N^1-(2-{[2-(4-hydroxy-2-oxo-2,3-dihydro-1,3-benzothiazol-7-yl)ethyl]amino}ethyl)-N^3-[2-(3-methylphenyl)ethyl]-β-alaninamide bis-trifluoroacetic acid salt]", "β2 Int Act": 0.65},
      {"compound": "COc1ccc(CCNCCC(=O)N(CCNCCc2ccc(O)c3[nH]c(=O)sc23)C2CCCCCC2)cc1OC", "note": "[Example 86, N^1-Cycloheptyl-N^3-[2-(3,4-dimethoxyphenyl)ethyl]-N^1-(2-{[2-(4-hydroxy-2-oxo-2,3-dihydro-1,3-benzothiazol-7-yl)ethyl]amino}ethyl)-β-alaninamide bis-trifluoroacetic acid salt]", "β2 Int Act": 0.43},
      {"compound": "O=C(CCNCCc1ccc(O)c2[nH]c(=O)sc12)N(CCNCCc1ccc(O)c2[nH]c(=O)sc12)C1CCCCCC1", "note": "[Example 87, N^1-Cycloheptyl-N^3-[2-(4-hydroxy-2-oxo-2,3-dihydro-1,3-benzothiazol-7-yl)ethyl]-N^1-(2-{[2-(4-hydroxy-2-oxo-2,3-dihydro-1,3-benzothiazol-7-yl)ethyl]amino}ethyl)-β-alaninamide bis-trifluoroacetic acid salt]", "β2 Int Act": 0.72},
      {"compound": "O=C(CCNCCc1ccc2c(c1)OCCO2)N(CCNCCc1ccc(O)c2[nH]c(=O)sc12)C1CCCCCC1", "note": "[Example 88, N^1-Cycloheptyl-N^3-[2-(2,3-dihydro-1,4-benzodioxin-6-yl)ethyl]-N^1-(2-{[2-(4-hydroxy-2-oxo-2,3-dihydro-1,3-benzothiazol-7-yl)ethyl]amino}ethyl)-β-alaninamide bis-trifluoroacetic acid salt]", "β2 Int Act": 0.37},
      {"compound": "O=C(CCNCCc1ccc(O)c(Cl)c1)N(CCNCCc1ccc(O)c2[nH]c(=O)sc12)C1CCCCC1", "note": "[Example 89, N^3-[2-(3-chloro-4-hydroxyphenyl)ethyl]-N^1-cyclohexyl-N^1-(2-{[2-(4-hydroxy-2-oxo-2,3-dihydro-1,3-benzothiazol-7-yl)ethyl]amino}ethyl)-β-alaninamide bis-trifluoroacetic acid salt]", "β2 Int Act": 0.9},
      {"compound": "O=C(CCNCCc1cccc(O)c1)N(CCNCCc1ccc(O)c2[nH]c(=O)sc12)C1CCCCCCC1", "note": "[Example 90, N^1-Cyclooctyl-N^1-(2-{[2-(4-hydroxy-2-oxo-2,3-dihydro-1,3-benzothiazol-7-yl)ethyl]amino}ethyl)-N^3-[2-(3-hydroxyphenyl)ethyl]-β-alaninamide bis-trifluoroacetic acid salt]", "β2 Int Act": 0.71},
      {"compound": "CC1(C)CCC(N(CCNCCc2ccc(O)c3[nH]c(=O)sc23)C(=O)CCNCCc2cccc(O)c2)CC1", "note": "[Example 91, N^1-(4,4-Dimethylcyclohexyl)-N^1-(2-{[2-(4-hydroxy-2-oxo-2,3-dihydro-1,3-benzothiazol-7-yl)ethyl]amino}ethyl)-N^3-[2-(3-hydroxyphenyl)ethyl]-β-alaninamide bis-trifluoroacetic acid salt]", "β2 Int Act": 0.75},
      {"compound": "O=C(CCNCCc1cccc(F)c1)N(CCNCCc1ccc(O)c2[nH]c(=O)sc12)C1CCCCC1", "note": "[Example 96, N-Cyclohexyl-N^3-[2-(3-fluorophenyl)ethyl]-N-(2-{[2-(4-hydroxy-2-oxo-2,3-dihydro-1,3-benzothiazol-7-yl)ethyl]amino}ethyl)-β-alaninamide dihydrobromide salt]", "β2 Int Act": 0.85},
      {"compound": "O=C(NCc1ccccc1)c1ccc(CCNCCC(=O)N(CCNCCc2ccc(O)c3[nH]c(=O)sc23)C2CCCCCC2)cc1", "note": "[Example 100, N-Benzyl-4-[2-({3-[cycloheptyl(2-{[2-(4-hydroxy-2-oxo-2,3-dihydro-1,3-benzothiazol-7-yl)ethyl]amino}ethyl)amino]-3-oxopropyl}amino)ethyl]benzamide bis-trifluoroacetic acid salt]", "β2 Int Act": 0.81},
      {"compound": "CCCC[C@@H](C)N(CCNCCc1ccc(O)c2[nH]c(=O)sc12)C(=O)CCNCCc1ccccc1", "note": "[Example 101, N-(2-{[2-(4-Hydroxy-2-oxo-2,3-dihydro-1,3-benzothiazol-7-yl)ethyl]amino}ethyl)-N-[(1R)-1-methylpentyl]-N^3-(2-phenylethyl)-β-alaninamide bis-trifluoroacetic acid salt]", "β2 Int Act": 0.98},
      {"compound": "CCCC[C@H](C)N(CCNCCc1ccc(O)c2[nH]c(=O)sc12)C(=O)CCNCCc1ccccc1", "note": "[Example 102, N-(2-{[2-(4-Hydroxy-2-oxo-2,3-dihydro-1,3-benzothiazol-7-yl)ethyl]amino}ethyl)-N-[(1S)-1-methylpentyl]-N^3-(2-phenylethyl)-β-alaninamide bis-trifluoroacetic acid salt]", "β2 Int Act": 0.23},
      {"compound": "CC(CN(C(=O)CCNCCc1cccc(F)c1)C1CCCCCC1)NCCc1ccc(O)c2[nH]c(=O)sc12", "note": "(stereo not drawn) [Example 104, N-Cycloheptyl-N^3-[2-(3-fluorophenyl)ethyl]-N-(2-{[2-(4-hydroxy-2-oxo-2,3-dihydro-1,3-benzothiazol-7-yl)ethyl]amino}propyl)-β-alaninamide bis-trifluoroacetic acid salt]", "β2 Int Act": 0.81},
      {"compound": "CC(CN(C(=O)CCNCCc1ccccc1)C1CCCCC1)NCCc1ccc(O)c2[nH]c(=O)sc12", "note": "(stereo not drawn) [Example 105, N-Cyclohexyl-N-(2-{[2-(4-hydroxy-2-oxo-2,3-dihydro-1,3-benzothiazol-7-yl)ethyl]amino}propyl)-N^3-(2-phenylethyl)-β-alaninamide bis-trifluoroacetic acid salt]", "β2 Int Act": 0.86}
    ]},
    {"target": "T1, Adrenergic β2", "assay": "Adrenergic β2 mediated cAMP production in H292 cells (AlphaScreen cAMP detection)", "format": "cell-based", "conditions": "Intrinsic Activity, fraction relative to the maximum activity determined for formoterol, dihydrobromide salt", "how_it_was_run": "as §1", "values": [
      {"compound": "O=C(CCNCCc1ccccc1)N(CCNCCc1ccc(O)c2[nH]c(=O)sc12)C1CCCCCC1", "note": "[Example 98, N-Cycloheptyl-N-(2-{[2-(4-hydroxy-2-oxo-2,3-dihydro-1,3-benzothiazol-7-yl)ethyl]amino}ethyl)-N^3-(2-phenylethyl)-β-alaninamide dihydrobromide salt]", "β2 Int Act": 0.8}
    ]}
  ]
}
